Laboratory results from patent US20230114153A1, “IMIDAZOLYL THIOPEHENE SULFONYL CARBAMATES FOR USE IN THE TREATMENT OF DISEASES ASSOCIATED WITH ANGIOTENSIN II” (Vicore Pharma AB, priority 2020, published 2023).

Tests used:
CYP3A4&5 = test: CYP inhibition in human liver microsomes, CYP3A4&5 (testosterone); type: in vitro ADME; details: probe testosterone, substrate testosterone, read-out: CYP3A4&5 testosterone Inh %
Description: (§1) The following substrates were used; CYP1A phenacetin, CYP2B6 bupropion, CYP2C8 paclitaxel and amodiaquine, CYP2C9 diclofenac, CYP2C19 omeprazole, CYP2D6 dextromethorphan, CYP3A midazolam and testosterone. At the end of the incubation, the formation of metabolite was monitored by HPLC-MS/MS as the peak area response.

CYP2C8 = target: T1, CYP2C8 (Homo sapiens, UniProt P10632); test: CYP inhibition in human liver microsomes, CYP2C8; type: in vitro ADME; details: probe paclitaxel and amodiaquine, substrates paclitaxel and amodiaquine, read-out: CYP2C8 Inh %
T1 construct: incubated with human liver microsomes; tissue Eurofins (contract protocol) ITEMG232; host or cells: human liver microsomes
T1 sequence (P10632 1-490): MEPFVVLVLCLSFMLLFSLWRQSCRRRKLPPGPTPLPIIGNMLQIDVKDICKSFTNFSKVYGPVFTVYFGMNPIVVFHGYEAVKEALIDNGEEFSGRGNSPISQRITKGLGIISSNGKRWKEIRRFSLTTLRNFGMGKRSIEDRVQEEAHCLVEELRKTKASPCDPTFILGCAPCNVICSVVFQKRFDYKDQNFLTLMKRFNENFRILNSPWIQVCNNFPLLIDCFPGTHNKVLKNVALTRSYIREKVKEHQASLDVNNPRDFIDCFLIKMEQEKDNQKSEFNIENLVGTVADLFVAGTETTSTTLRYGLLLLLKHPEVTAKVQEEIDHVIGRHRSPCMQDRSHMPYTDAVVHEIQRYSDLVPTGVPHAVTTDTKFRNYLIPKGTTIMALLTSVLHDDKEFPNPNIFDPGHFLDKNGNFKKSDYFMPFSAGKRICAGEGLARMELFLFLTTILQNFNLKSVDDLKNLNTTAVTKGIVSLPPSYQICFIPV
Description: as §1

CYP2D6 = target: T2, CYP2D6 (Homo sapiens, UniProt P10635); test: CYP inhibition in human liver microsomes, CYP2D6; type: in vitro ADME; details: probe dextromethorphan, substrate dextromethorphan, read-out: CYP2D6 Inh %
T2 construct: incubated with human liver microsomes; tissue Eurofins (contract protocol) ITEMG232; host or cells: human liver microsomes
T2 sequence (P10635 whole entry): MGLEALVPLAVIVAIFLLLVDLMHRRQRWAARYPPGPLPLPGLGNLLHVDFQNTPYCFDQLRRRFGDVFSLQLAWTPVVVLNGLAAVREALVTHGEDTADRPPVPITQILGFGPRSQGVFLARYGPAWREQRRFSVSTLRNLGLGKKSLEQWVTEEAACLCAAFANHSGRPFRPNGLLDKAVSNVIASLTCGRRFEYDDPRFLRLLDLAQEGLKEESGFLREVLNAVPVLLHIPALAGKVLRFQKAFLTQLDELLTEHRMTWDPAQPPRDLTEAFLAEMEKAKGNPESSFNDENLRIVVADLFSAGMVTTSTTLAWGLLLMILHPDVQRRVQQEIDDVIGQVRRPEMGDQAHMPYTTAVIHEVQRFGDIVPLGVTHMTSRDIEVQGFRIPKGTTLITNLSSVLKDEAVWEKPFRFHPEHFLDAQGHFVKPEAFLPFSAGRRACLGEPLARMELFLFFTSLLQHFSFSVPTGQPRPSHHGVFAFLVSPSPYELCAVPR
Description: as §1

CYP3A4 = target: T3, CYP3A4 (Homo sapiens, UniProt P08684); test: CYP inhibition in human liver microsomes, CYP3A4 (midazolam); type: in vitro ADME; details: probe midazolam, substrate midazolam, read-out: CYP3A4 midazolam Inh %
T3 construct: incubated with human liver microsomes; tissue Eurofins (contract protocol) ITEMG232; host or cells: human liver microsomes
T3 sequence (P08684 whole entry): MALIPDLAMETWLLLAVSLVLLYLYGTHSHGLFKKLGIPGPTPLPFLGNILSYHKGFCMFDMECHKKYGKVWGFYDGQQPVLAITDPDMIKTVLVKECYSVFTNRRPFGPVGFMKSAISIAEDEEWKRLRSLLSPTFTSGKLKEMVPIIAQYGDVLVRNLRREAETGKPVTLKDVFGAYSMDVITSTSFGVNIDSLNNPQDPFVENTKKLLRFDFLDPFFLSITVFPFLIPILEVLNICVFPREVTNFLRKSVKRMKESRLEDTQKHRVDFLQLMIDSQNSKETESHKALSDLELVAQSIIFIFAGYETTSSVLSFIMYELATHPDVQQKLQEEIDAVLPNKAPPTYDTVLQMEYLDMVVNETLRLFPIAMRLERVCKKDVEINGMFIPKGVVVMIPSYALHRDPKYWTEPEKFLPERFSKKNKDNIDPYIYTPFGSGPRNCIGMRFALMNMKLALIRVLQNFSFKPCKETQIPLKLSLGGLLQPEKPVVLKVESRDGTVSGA
Description: as §1

CYP1A = target: T4, CYP1A (Homo sapiens, UniProt P05177); test: CYP inhibition in human liver microsomes, CYP1A; type: in vitro ADME; details: probe phenacetin, substrate phenacetin, read-out: CYP1A Inh %
T4 construct: incubated with human liver microsomes; tissue Eurofins (contract protocol) ITEMG232; host or cells: human liver microsomes
T4 sequence (P05177 1-516): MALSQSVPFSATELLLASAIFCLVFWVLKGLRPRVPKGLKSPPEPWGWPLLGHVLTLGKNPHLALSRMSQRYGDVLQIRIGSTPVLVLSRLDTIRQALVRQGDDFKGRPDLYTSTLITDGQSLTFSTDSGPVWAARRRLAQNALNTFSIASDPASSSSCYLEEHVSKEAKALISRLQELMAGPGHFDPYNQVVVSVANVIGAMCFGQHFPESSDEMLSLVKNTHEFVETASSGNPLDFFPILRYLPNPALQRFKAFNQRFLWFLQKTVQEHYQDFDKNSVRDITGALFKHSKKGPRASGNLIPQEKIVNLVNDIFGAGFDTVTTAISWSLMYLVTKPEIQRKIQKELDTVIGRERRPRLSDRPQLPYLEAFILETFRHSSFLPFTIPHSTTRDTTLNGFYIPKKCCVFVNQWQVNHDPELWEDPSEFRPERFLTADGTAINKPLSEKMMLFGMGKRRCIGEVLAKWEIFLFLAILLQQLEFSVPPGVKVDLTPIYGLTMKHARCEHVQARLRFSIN
Description: as §1

CYP2B6 = target: T5, CYP2B6 (Homo sapiens, UniProt P20813); test: CYP inhibition in human liver microsomes, CYP2B6; type: in vitro ADME; details: probe bupropion, substrate bupropion, read-out: CYP2B6 Inh %
T5 construct: incubated with human liver microsomes; tissue Eurofins (contract protocol) ITEMG232; host or cells: human liver microsomes
T5 sequence (P20813 1-491): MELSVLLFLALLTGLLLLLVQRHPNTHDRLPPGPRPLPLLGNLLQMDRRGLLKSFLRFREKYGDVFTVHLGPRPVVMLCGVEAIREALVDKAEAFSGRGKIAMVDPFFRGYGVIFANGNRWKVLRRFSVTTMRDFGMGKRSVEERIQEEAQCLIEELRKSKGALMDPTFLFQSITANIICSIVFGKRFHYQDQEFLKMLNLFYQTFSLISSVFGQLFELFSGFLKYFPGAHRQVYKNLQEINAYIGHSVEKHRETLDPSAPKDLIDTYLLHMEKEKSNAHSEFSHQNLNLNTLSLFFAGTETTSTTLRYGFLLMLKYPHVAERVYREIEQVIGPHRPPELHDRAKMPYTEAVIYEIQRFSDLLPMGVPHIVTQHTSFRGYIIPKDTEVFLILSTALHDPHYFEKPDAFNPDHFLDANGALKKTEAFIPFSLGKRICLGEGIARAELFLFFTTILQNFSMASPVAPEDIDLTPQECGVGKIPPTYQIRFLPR
Description: as §1

CYP2C9 = target: T6, CYP2C9 (Homo sapiens, UniProt P11712); test: CYP inhibition in human liver microsomes, CYP2C9; type: in vitro ADME; details: probe diclofenac, substrate diclofenac, read-out: CYP2C9 Inh %
T6 construct: incubated with human liver microsomes; tissue Eurofins (contract protocol) ITEMG232; host or cells: human liver microsomes
T6 sequence (P11712 whole entry): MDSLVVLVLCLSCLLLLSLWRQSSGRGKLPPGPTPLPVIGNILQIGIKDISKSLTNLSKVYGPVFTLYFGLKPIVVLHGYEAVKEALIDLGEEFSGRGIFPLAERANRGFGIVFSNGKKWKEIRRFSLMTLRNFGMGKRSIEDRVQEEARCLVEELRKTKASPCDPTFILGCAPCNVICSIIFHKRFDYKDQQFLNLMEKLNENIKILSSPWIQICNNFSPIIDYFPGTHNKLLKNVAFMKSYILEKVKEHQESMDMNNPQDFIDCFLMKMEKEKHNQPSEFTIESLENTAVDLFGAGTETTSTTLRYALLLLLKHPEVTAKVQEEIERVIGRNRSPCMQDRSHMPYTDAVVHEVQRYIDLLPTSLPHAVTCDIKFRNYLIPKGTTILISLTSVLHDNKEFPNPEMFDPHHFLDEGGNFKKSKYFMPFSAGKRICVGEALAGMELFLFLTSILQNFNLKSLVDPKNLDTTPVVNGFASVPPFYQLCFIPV
Description: as §1

[1] = target: T7, human recombinant AT2 receptor (Homo sapiens, UniProt P50052); test: Binding to human recombinant AT2 receptor, radiometric scintillation assay (Eurofins ITEM26); details: ligand 125I CGP 42112A, 2-4 h at 37° C., tested at 1, 10, 100 and 1000 nM
T7 construct: Eurofins (contract protocol) ITEM26
T7 sequence (P50052 1-363): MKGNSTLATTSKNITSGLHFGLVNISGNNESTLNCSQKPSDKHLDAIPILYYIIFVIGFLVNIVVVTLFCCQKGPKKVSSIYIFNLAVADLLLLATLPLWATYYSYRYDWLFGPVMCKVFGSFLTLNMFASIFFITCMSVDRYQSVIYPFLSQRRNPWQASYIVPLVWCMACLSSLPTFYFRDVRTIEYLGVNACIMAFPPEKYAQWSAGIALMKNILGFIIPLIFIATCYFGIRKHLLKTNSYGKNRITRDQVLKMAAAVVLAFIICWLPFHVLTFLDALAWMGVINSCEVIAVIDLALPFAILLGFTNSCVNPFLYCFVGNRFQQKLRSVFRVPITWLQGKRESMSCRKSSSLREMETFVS

CYP2C19 = target: T8, CYP2C19 (Homo sapiens, UniProt P33261); test: CYP inhibition in human liver microsomes, CYP2C19; type: in vitro ADME; details: probe omeprazole, substrate omeprazole, read-out: CYP2C19 Inh %
T8 construct: incubated with human liver microsomes; tissue Eurofins (contract protocol) ITEMG232; host or cells: human liver microsomes
T8 sequence (P33261 whole entry): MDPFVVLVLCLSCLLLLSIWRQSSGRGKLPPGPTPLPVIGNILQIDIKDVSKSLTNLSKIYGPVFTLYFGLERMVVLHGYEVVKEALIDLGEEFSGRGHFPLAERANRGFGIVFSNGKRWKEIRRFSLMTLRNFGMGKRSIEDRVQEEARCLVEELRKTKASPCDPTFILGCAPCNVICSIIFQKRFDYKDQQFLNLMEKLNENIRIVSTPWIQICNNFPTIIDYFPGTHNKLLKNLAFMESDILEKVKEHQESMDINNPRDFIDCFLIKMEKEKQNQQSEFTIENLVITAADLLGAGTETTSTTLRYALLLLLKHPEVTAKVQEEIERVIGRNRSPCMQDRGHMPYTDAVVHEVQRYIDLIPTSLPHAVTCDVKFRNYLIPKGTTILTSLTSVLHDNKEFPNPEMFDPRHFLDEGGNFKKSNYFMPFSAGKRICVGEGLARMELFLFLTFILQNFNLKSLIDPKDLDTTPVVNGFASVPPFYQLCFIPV
Description: as §1

| inhibition at 10 µM (CYP3A4&5) [%] | inhibition at 10 µM (CYP2C8) [%] | inhibition at 10 µM (CYP2D6) [%] | inhibition at 10 µM (CYP3A4) [%] | inhibition at 10 µM (CYP1A) [%] | inhibition at 10 µM (CYP2B6) [%] | inhibition at 10 µM (CYP2C9) [%] | IC50 [1] [nM] | inhibition at 10 µM (CYP2C19) [%] | SMILES |
| --- | --- | --- | --- | --- | --- | --- | --- | --- | --- |
| 13.5 | 37.5 | 22.4 | ~0 | 2.5 | 17.6 | 58.9 | 0.53 | 43 | CCCCOC(=O)NS(=O)(=O)c1sc(CC(C)C)cc1-c1ccc(Cn2ccnc2C)cc1 [Example 1, Butyl (5-isobutyl-3-(4-((2-methyl-1H-imidazol-1-yl)methyl)phenyl)thiophen-2-yl)sulfonyl-carbamate] |
| 94.2 | 80.4 | 81.2 | 95.2 | 90.9 | 48.8 | – | – | – | CCCCOC(=O)NS(=O)(=O)c1sc(CC(C)C)cc1-c1ccc(Cn2ccnc2)cc1 [Example C21, N-butyloxycarbonyl-3-(4-imidazol-1-ylmethylphenyl)-5-isobutylthiophene-2-sulfon-amide, reference compound] |
